This is an account of results in ChEMBL document CHEMBL1909294, “Translating clinical findings into knowledge in drug safety evaluation--drug induced liver injury prediction system (DILIps)” (PLoS Comput Biol, 2011).

Data set [1] relates to Hepatotoxicity.
Data set [2] relates to Hepatotoxicity. This is another data set of the same source.
The test system of data set [3] is Hepatotoxicity. The source holds these as a separate data set.
The test system of data set [4] is Hepatotoxicity. The source holds these as a separate data set.
Data set [5] relates to Hepatotoxicity. The source holds these as a separate data set.
Data set [6] relates to Hepatotoxicity. The source holds these as a separate data set.
The test system of data set [7] is Hepatotoxicity. This is another data set of the same source.
The subject of data set [8] is Hepatotoxicity. This is another data set of the same source.
The subject of data set [9] is Hepatotoxicity. This is another data set of the same source.
Data set [10] deals with Hepatotoxicity. The source holds these as a separate data set.
The test system of data set [11] is Hepatotoxicity. This is another data set of the same source.
In data set [12] the test system is Hepatotoxicity. The source holds these as a separate data set.
Data set [13] concerns Hepatotoxicity. This is another data set of the same source.
For data set [14], the system named is Hepatotoxicity. This is another data set of the same source.
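Throughout, for HepSE Combined Scores: combined hepatic side effect score as listed in the training data of the Drug Induced Liver Injury Prediction System (DILIps).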
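Throughout, for HepSE bilirubinemia: bilirubinemia hepatic side effect score drawn from the DILIps training data, a prediction system for drug-induced liver injury; call rule not given here.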
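Throughout, for HepSE cholecystitis: Cholecystitis-related hepatic side effect score drawn from the DILIps (drug-induced liver injury prediction) training data set; call rule not given here.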
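Throughout, for HepSE cholelithiasis: hepatic side effect score for cholelithiasis, drawn from the DILIps training data for predicting drug-induced liver injury; call rule not given here.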
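Throughout, for HepSE cirrhosis: cirrhosis hepatic side effect score taken from the DILIps (drug-induced liver injury prediction) training set; call rule not given here.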
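Throughout, for HepSE elevated liver function tests: hepatic side effect score for raised liver function tests, as recorded in the DILIps training set used for predicting drug-induced liver injury.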
Throughout, for HepSE hepatic failure: call rule not given here.
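Throughout, for HepSE hepatic necrosis: score of hepatic side effects for hepatic necrosis, drawn from the training data of DILIps, a prediction system for drug-induced liver injury; call rule not given here.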
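Throughout, for HepSE hepatitis: Hepatitis-related hepatic side effect score taken from the training data of DILIps, a prediction system for drug-induced liver injury; call rule not given here.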
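Throughout, for HepSE hepatomegaly: hepatic side effect score for hepatomegaly, taken from the training set of the DILIps drug-induced liver injury prediction system; call rule not given here.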
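Throughout, for HepSE jaundice: Jaundice-related hepatic side-effect score drawn from the training data of the DILIps (drug-induced liver injury prediction system); call rule not given here.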
Throughout, for HepSE liver disease: call rule not given here.
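Throughout, for HepSE liver fatty: hepatic side effect score for fatty liver, taken from the DILIps training set for predicting drug-induced liver injury; call rule not given here.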
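Throughout, for HepSE liver function tests abnormal: hepatic side effect score taken from the DILIps (drug-induced liver injury prediction system) training data, here covering abnormal liver function test findings.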

`O=[As][As+](=O)[O-]` (stereo not given) [ARSENIC TRIOXIDE] gave a HepSE_bilirubinemia in the data set with Hepatotoxicity [1] of 0. In the data set with Hepatotoxicity [2], this molecule showed a HepSE_cholecystitis of 0. In addition, in the data set with Hepatotoxicity [3], the HepSE_cholelithiasis is on record as 0. For the same molecule, the HepSE_cirrhosis in the data set on Hepatotoxicity [4] is reported as 0. The “HepSE_elevated liver function tests” value in the data set on Hepatotoxicity [5] is 0. Also, in the data set with Hepatotoxicity [6], the HepSE_hepatic failure turned out to be 0. The molecule further registered a HepSE_hepatic necrosis with Hepatotoxicity [7] of 0. Moreover, the HepSE_hepatitis in the data set on Hepatotoxicity [8] is reported as 0. Besides, the HepSE_hepatomegaly with Hepatotoxicity [9] was 0. For the same molecule, the HepSE_jaundice in the data set on Hepatotoxicity [10] amounted to 0. In the data set on Hepatotoxicity [11], the HepSE_liver disease worked out at 0. The HepSE_liver fatty in the data set on Hepatotoxicity [12] amounted to 0. Further, the “HepSE_liver function tests abnormal” value in the data set with Hepatotoxicity [13] stood at 0. Moreover, the “HepSE_Combined Scores” value in the data set on Hepatotoxicity [14] is 0.
In turn, `II` [IODINE] came in with a HepSE_bilirubinemia with Hepatotoxicity [1] of 0. In the data set on Hepatotoxicity [2], this molecule registered a HepSE_cholecystitis of 0. The molecule also showed a HepSE_cholelithiasis in the data set on Hepatotoxicity [3] of 0. The same molecule came in with a HepSE_cirrhosis in the data set with Hepatotoxicity [4] of 0. For the same molecule, the “HepSE_elevated liver function tests” value with Hepatotoxicity [5] was 0. The molecule further had a HepSE_hepatic failure with Hepatotoxicity [6] of 0. The same molecule displayed a HepSE_hepatic necrosis in the data set on Hepatotoxicity [7] of 0. This molecule yielded a HepSE_hepatitis in the data set with Hepatotoxicity [8] of 1. Also, in the data set with Hepatotoxicity [9], the HepSE_hepatomegaly is 0. Also, in the data set with Hepatotoxicity [10], the HepSE_jaundice is 0. This molecule also returned a HepSE_liver disease in the data set with Hepatotoxicity [11] of 0. For the same molecule, in the data set on Hepatotoxicity [12], the HepSE_liver fatty came out at 0. In the data set on Hepatotoxicity [13], the “HepSE_liver function tests abnormal” value is 0. Besides, the “HepSE_Combined Scores” value in the data set on Hepatotoxicity [14] is 1.
In the data set on Hepatotoxicity [1], `O=C(O)c1ccc(-n2nc(-c3ccccc3O)nc2-c2ccccc2O)cc1` [DEFERASIROX] yielded a HepSE_bilirubinemia of 0. The same molecule yielded a HepSE_cholecystitis with Hepatotoxicity [2] of 0. In addition, the HepSE_cholelithiasis in the data set with Hepatotoxicity [3] came out at 1. The molecule also gave a HepSE_cirrhosis with Hepatotoxicity [4] of 1. Also, the “HepSE_elevated liver function tests” value with Hepatotoxicity [5] worked out at 0. In the data set with Hepatotoxicity [6], this molecule had a HepSE_hepatic failure of 1. Besides, the HepSE_hepatic necrosis in the data set with Hepatotoxicity [7] is 0. Further, the HepSE_hepatitis in the data set with Hepatotoxicity [8] was found to be 1. In the data set on Hepatotoxicity [9], this molecule came in with a HepSE_hepatomegaly of 0. The HepSE_jaundice with Hepatotoxicity [10] was 0. The molecule also came in with a HepSE_liver disease with Hepatotoxicity [11] of 0. In addition, the HepSE_liver fatty with Hepatotoxicity [12] came to 0. The “HepSE_liver function tests abnormal” value in the data set on Hepatotoxicity [13] is 1. Further, the “HepSE_Combined Scores” value in the data set on Hepatotoxicity [14] stood at 5.
With `COc1cc(NS(C)(=O)=O)ccc1Nc1c2ccccc2nc2ccccc12` [AMSACRINE], in the data set on Hepatotoxicity [1], the HepSE_bilirubinemia came out at 0. The HepSE_cholecystitis with Hepatotoxicity [2] was found to be 0. The molecule further displayed a HepSE_cholelithiasis in the data set with Hepatotoxicity [3] of 0. The HepSE_cirrhosis in the data set with Hepatotoxicity [4] came to 0. The “HepSE_elevated liver function tests” value with Hepatotoxicity [5] is reported as 0. The molecule further registered a HepSE_hepatic failure in the data set on Hepatotoxicity [6] of 1. In the data set with Hepatotoxicity [7], the HepSE_hepatic necrosis came out at 0. Besides, in the data set on Hepatotoxicity [8], the HepSE_hepatitis came to 1. Moreover, the HepSE_hepatomegaly in the data set on Hepatotoxicity [9] was 0. In the data set with Hepatotoxicity [10], this molecule yielded a HepSE_jaundice of 1. In the data set with Hepatotoxicity [11], this molecule gave a HepSE_liver disease of 0. The same molecule yielded a HepSE_liver fatty in the data set on Hepatotoxicity [12] of 0. Moreover, in the data set with Hepatotoxicity [13], the “HepSE_liver function tests abnormal” value was found to be 0. For the same molecule, in the data set on Hepatotoxicity [14], the “HepSE_Combined Scores” value was found to be 3.
In the data set on Hepatotoxicity [1], `C[C@]12CC[C@@H]3c4ccc(OC(=O)N(CCCl)CCCl)cc4CC[C@H]3[C@@H]1CC[C@@H]2O` [ESTRAMUSTINE] returned a HepSE_bilirubinemia of 0. In the data set on Hepatotoxicity [2], this molecule gave a HepSE_cholecystitis of 0. The molecule also gave a HepSE_cholelithiasis in the data set on Hepatotoxicity [3] of 0. In the data set with Hepatotoxicity [4], this molecule displayed a HepSE_cirrhosis of 0. Moreover, in the data set with Hepatotoxicity [5], the “HepSE_elevated liver function tests” value came out at 0. Moreover, the HepSE_hepatic failure with Hepatotoxicity [6] is 0. The same molecule displayed a HepSE_hepatic necrosis in the data set with Hepatotoxicity [7] of 0. Besides, the HepSE_hepatitis with Hepatotoxicity [8] amounted to 0. Further, in the data set with Hepatotoxicity [9], the HepSE_hepatomegaly amounted to 0. The HepSE_jaundice in the data set with Hepatotoxicity [10] turned out to be 0. Besides, the HepSE_liver disease in the data set with Hepatotoxicity [11] is recorded as 0. In addition, the HepSE_liver fatty in the data set on Hepatotoxicity [12] was 0. Also, in the data set with Hepatotoxicity [13], the “HepSE_liver function tests abnormal” value is on record as 0. The “HepSE_Combined Scores” value in the data set on Hepatotoxicity [14] was 0.
